Earlier results on two compounds are cited in patent US9155756B2, “Method for the prevention and treatment of sepsis” (Universiteit Maastricht, priority 2011, dated 2015).

Series [1] relates to patients with severe sepsis.
Series [2] has as its system patients with septic shock. The following applies: low dose for 5-7 days.

As to drotrecogin alfa, in series [1] (patients with multi-organ failure, large randomized clinical trials), the “Number needed to treat (NNT) for reduced mortality” value was 16. For the same compound, the Mortality entry in series [1] (severe sepsis, decreased from about 31%) is “about 25%”.
As to `C[C@]12CCC(=O)C=C1CC[C@@H]1[C@@H]2[C@@H](O)C[C@@]2(C)[C@H]1CC[C@]2(O)C(=O)CO` [hydrocortisone], the Clinical outcome in series [2] was “improved outcomes”.
